{"source": "patent US20200016118A1", "about": "“HDAC INHIBITOR IN COMBINATION WITH VEGF/VEGFR INTERACTION FOR CANCER THERAPY BASED ON PLATELET COUNT” (4SC AG, priority 2017, published 2020)", "system": "advanced HCC", "assay": "Phase I/II trial (Phase II part) of resminostat in combination with sorafenib versus sorafenib alone, first-line, overall survival by baseline platelet count", "type": "in vivo, human", "description": "A Phase I/II trial investigating resminostat in the indication of hepatocellular cancer (HCC) was conducted. The study was an open-label, multi-center Phase I/II study in patients with advanced HCC previously untreated with systemic chemotherapy (first-line therapy) to determine the MTD and to evaluate safety and efficacy of resminostat in combination with sorafenib. The study was conducted in Japan and Korea. The main eligibility criteria included a performance status of ECOG 0-1, adequate hepatic, renal, cardiac and bone marrow function and a life expectancy of more than 12 weeks.\nIn the Phase II part, a total of 170 patients were enrolled. Patients were randomly allocated to either the combination group (86 patients) or the monotherapy group (84 patients) at the RD determined from phase I. Randomization was performed with the minimization method using the following 2 factors as stratification factors: study site; and vascular invasion (presence or absence). The trial is registered at www.clinicaltrials.jp (Identifier: JapicCTI-132124) and www.clinicalTrials.gov (NCT02400788). Overall Survival (OS) were evaluated by the Kaplan-Meier method. A point estimate of the hazard ratio was calculated for each subgroup categorized by baseline platelet level as well as the 95% confidence interval of the estimate.\nTreatment regimen: Mono group: A cycle was defined as 14 days. Sorafenib (800 mg) was given daily. Combination group: A cycle was defined as 14 days. Sorafenib (800 mg) was given daily. Resminostat (400 mg) was given daily on Days 1 to 5 and suspended on Days 6 to 14.\nBlood was collected into a blood collection tubes precharged with EDTA-2K and then immediately inverted 4-5 times to mix. The mixed sample was stored refrigerated for further analysis.\nPlatelet count analysis was conducted with the Sheath Flow DC Detection method (Sysmex, Kobe, Japan). A method is described in detail in WALTERS J., GARRITY P. (2000): Performance Evaluation of the Sysmex XE-2100 Hematology Analyzer; Laboratory Hematology 6: 83-92. […]"}
{"compound": "CNC(=O)c1cc(Oc2ccc(NC(=O)Nc3ccc(Cl)c(C(F)(F)F)c3)cc2)ccn1", "note": "[sorafenib, 4-[4-[[4-chloro-3-(trifluoromethyl)phenyl]carbamoylamino]phenoxy]-N-methyl-pyridine-2-carboxamide]", "values": [{"measurement": "overall survival (OS), in words", "setting": "patients with platelet count of about 150000 platelets/μL or above compared to below about 150000 (FIG. 1)", "result": "shorter overall survival"}, {"measurement": "median overall survival (mOS)", "setting": "patients with platelet count ≥151×10^3/μL (median) at baseline", "result": 5.1, "unit": "months"}, {"measurement": "median overall survival (mOS)", "setting": "patients with platelet level below median (<151×10^3/μL)", "result": 17.5, "unit": "months"}]}
